# Measured values from US9975852B2, “Quinoline sulfonyl derivatives and uses thereof” (Health Sciences North Research Institute, priority 2013, dated 2018).
# Where two headings read alike, the source gives them in different places.
# What was measured:
# U87MG brain cancer cells = assay: Clonogenic assay, U87MG brain cancer cells; format: cell-based; conditions: Temozolomide
# Experimental: (§1) The clonogenic assay was carried out as described in Santi and Lee (2011).^11
# MDA-MB468 = assay: SRB antiproliferative assay, MDA-MB468; format: cell-based, human
# Experimental: (§2) Antiproliferative effects were determined by a sulforhodamine B (SRB) based protocol. For a typical screening experiment, 5,000-10,000 cells were inoculated into 100 μl medium per well of a 96-well microtiter plate as described previously. […] Some of the sample wells were fixed with 25 μl of 50% trichloroacetic acid (TCA) as a control of the cell population for each cell line at the time of drug addition (Tz). An aliquot of the frozen stock was thawed and diluted to the desired final maximum test-concentration with complete medium. Two to ten-fold serial dilutions were made to provide a total of seven drug concentrations (and a control [C]). Following addition of drugs, the culture plate was incubated for additional 48 h. Cells were fixed in situ by slowly adding 25 μl of ice-cold 50% (w/v) TCA (final concentration, 10% TCA), and were then incubated for 60 min at 4° C. The supernatant was discarded, and the plate was washed five times with tap water, followed by air-dry. 50 μl of SRB solution at 0.4% (w/v) in 1% acetic acid was added to each well, and the plate was incubated for >30 min at room temperature. Unbound SRB was removed by five washes with tap water, followed by air-drying. […] The relative growth rate (%) was calculated for each of the compound concentrations according to the following formula: (Ti−Tz)/(C−Tz)×100 In the formula, time zero (Tz), control growth (C), and OD for different concentration of tested compounds (Ti). The GI50 for each compound was obtained from a non-linear Sigmoidal dose-response (variable slope) curve which is fitted by GraphPad Prism™ v.4.03 software. Values were calculated for each of these parameters if the level of activity was reached. However, if the effect was not reached or was exceeded, the value for that parameter was expressed as greater or less than the maximum or minimum concentration tested. Flow Cytometry
# 184B5 = assay: SRB antiproliferative assay, 184B5 non-cancer breast cells; format: cell-based, human; conditions: SRB, 48 h, read-out: GI50 184B5
# Experimental: as §2
# MCF10A = assay: SRB antiproliferative assay, MCF10A non-cancer breast cells; format: cell-based, human; conditions: 48 h
# Experimental: as §2
# MDA-MB231 = assay: SRB antiproliferative assay, MDA-MB231; format: cell-based, human
# Experimental: as §2
# Jurkat lymphoma cells = assay: Flow cytometry, apoptosis of Jurkat lymphoma cells; format: cell-based; conditions: 6 nM Bortezomib, 48 hours
# Experimental: Asynchronously growing Jurkat lymphoma cells were incubated for 48 hours in the absence (sham control) or presence of Bortezomib alone or in combination with VR-23.
# MCF7 cells = assay: Clonogenic assay using MCF7 cells; format: cell-based, human
# Experimental: as §1
# Antiproliferative activity of VR-23 was evaluated on a variety of different cell lines, alone or in combination with Bortezomib, by way of SRBSRB or clonogenic assays.
# MCF7 = assay: SRB antiproliferative assay, MCF7; format: cell-based, human
# Experimental: as §2
# [1] = Serum ALT liver toxicity, CD-1 mice; conditions: Chloroquine (Reference)
# Experimental: (§3) Alanine Transaminase (“ALT”, SUP6001-c)/Aspartate Transaminase (“AST”, SUP6002-c) color endpoint assay kits were purchased from ID Labs Biotechnology (London, Ontario, Canada). Elevation of ALT and AST levels in serum samples is used as an indicator of liver damage/injury.
# (§4) Animals were monitored for food and water consumption every day, and their body weights and tumor volumes were measured twice per week. Tumor volumes were measured with a digital caliper and were determined by using the following formula: ½ length×width^2. Blood samples were collected via cardiac puncture and processed further for ALT and AST measurements. The animals were then immediately euthanized by carbon dioxide.
# (§5) Changes in body weight and the amount and ratio of alanine transaminase (ALT)/aspartate transaminase (AST) were used to measure toxic effects.
# Ratio of <2 is considered normal.
# MCF10A non-cancer cells = conditions: 50 μM CQ
# [2] = test system: MDA-MB231 human metastatic breast cancer cells; assay: Xenograft antitumor activity, ATH490 mice engrafted with MDA-MB231; format: in vivo; set-up: Tumor size D7 / Tumor size D15 / Tumor size D18 / Tumor size D22: unit not given here
# Experimental: Five-week-old female CD-1 and ATH490 (strain code 490) athymic nude mice were purchased from Charles River (Quebec, Canada). The MDA-MB231 human metastatic breast cancer cells were obtained from the American Tissue Culture Collection (ATCC, Manassas, Va., USA). Cells were maintained under humidified condition at 37° C. and 5% CO2 in DMEM high glucose medium (ATCC) supplemented with 10% fetal bovine serum and antibiotics. All animal experiments, including animal handling, care, treatment and endpoint determination, were reviewed and approved by the Laurentian University Animal Care Committee (ACC) and carried out at Laurentian University Animal Care facility (Sudbury, Ontario, Canada)
# To determine anti-tumor activity of VR-23 in an animal model, a xenograft model of human breast cancer cells in athymic nude mice was established. Exponentially growing MDA-MB231 cells were harvested and counted for inoculation into mice. Each mouse was subcutaneously injected at the flank with 10×10^6 cells in 0.2 ml ice cold 1×PBS. When tumor size reached 4-5 mm in diameter (n=4-5 per group), mice were randomly assigned into five (or more) groups.
# [3] = Organ weight and histology (liver, spleen, kidney, lung) of ATH490 mice
# Experimental: All values are presented as mean±S.E.M. Analyses were performed using GraphPad Prism software (GraphPad Software). Comparison between the groups was made by p value determination using one-way ANOVA. A p value of <0.05 was considered to be statistically significant. […] Each organ weight (%) is normalized with total body weight (BW).
# The H&E stained slides were taken with a 20× objective using a Zeiss EPI-fluorescent microscope (bright field). […] At least 10 fields for each slide (one slide per mouse, and 3 mice per group) were examined.
# Images were taken with a 10× objective using a Zeiss EPI-fluorescent microscope. […] Drug administration was carried out as described in Table IX and in the Materials and Methods section herein with respect to Animal Studies.
# The images of the H&E stained renal tissues were taken with a Zeiss EPI-fluorescent (bright field) microscope using a 10× objective.
# [4] = ATH490 mice
# Experimental: as §3, §4, §5
# Ratio of <2 is considered normal.
smiles,measurement,setting,value
Cn1nnc2c(C(N)=O)ncn2c1=O [Temozolomide],# Colonies (Experiment #1),U87MG brain cancer cells; 1 μM,64
same,# Colonies (Experiment #2),U87MG brain cancer cells; 1 μM,94
same,# Colonies (Experiment #1),U87MG brain cancer cells; 5 μM,39
same,# Colonies (Experiment #2),U87MG brain cancer cells; 5 μM,50
same,# Colonies (Experiment #1),U87MG brain cancer cells; 10 μM,4
same,# Colonies (Experiment #2),U87MG brain cancer cells; 10 μM,5
same,# Colonies (Experiment #1),U87MG brain cancer cells; 20 μM,2
same,# Colonies (Experiment #2),U87MG brain cancer cells; 20 μM,1
same,# Colonies (Experiment #1),U87MG brain cancer cells; 50 μM,2
same,# Colonies (Experiment #2),U87MG brain cancer cells; 50 μM,1
"CN(C)c1cccc2c(S(=O)(=O)NCCCNc3ccnc4cc(Cl)ccc34)cccc12 [VR-65 (41), 5-Dimethylamino-naphthalene-1-sulfonic acid [3-(7-chloro-quinolin-4-ylamino)-propyl]-amide]",GI50,"MDA-MB468; Homo sapiens, MDA-MB-468, 48 h",4.63 ± 0.35 µM
same,GI50,"184B5; Homo sapiens, 184B5",1.67 ± 0.08 µM
same,GI50,"MCF10A; Homo sapiens, MCF-10A",2.56 ± 0.03 µM
same,GI50,"MDA-MB231; Homo sapiens, MDA-MB-231, 48 h",12.7 ± 1.01 µM
CC(C)C[C@H](NC(=O)[C@H](Cc1ccccc1)NC(=O)c1cnccn1)B(O)O [Bortezomib],Cell killing by apoptosis,Jurkat lymphoma cells,"neither 6 nM of Bortezomib (FIG. 4, ii) nor 0.75 μM of VR-23 (FIG. 4, iv) induced substantial cell killing by apoptosis"
same,Average colony number,"MCF7 cells; Bortezomib at 2 nM, series with non-treated control 34",15
same,Average colony number,"MCF7 cells; Bortezomib at 4 nM, series with non-treated control 34",12
same,Average colony number,"MCF7 cells; Bortezomib at 4 nM, series with non-treated control 36",11
same,Average colony number,"MCF7 cells; Bortezomib at 6 nM, series with non-treated control 36",6
"N.N.[Cl][Pt][Cl] [Cisplatin, reference compound]",GI50,MDA-MB468; 48 h,31 ± 0.45 µM
same,GI50,184B5,25.5 ± 0.35 µM
same,GI50,"MCF7; SRB, 48 h, read-out: GI50 MCF7",25.8 ± 0.38 µM
same,GI50,MCF10A,51.5 ± 0.65 µM
same,GI50,MDA-MB231; 48 h,23.65 ± 0.23 µM
"O=S(=O)(c1ccc(-c2ccccc2)cc1)N1CCN(c2ccnc3cc(Cl)ccc23)CC1 [Compound 3, 7-Chloro-4-(4-(biphenylsulfonyl)piperazin-1-yl)quinoline]",GI50,"MDA-MB468; Homo sapiens, MDA-MB-468, 48 h",18.2 ± 0.54 µM
same,melting point,,238 to 240 °C
same,GI50,"184B5; Homo sapiens, 184B5",16.4 ± 0.23 µM
same,GI50,"MCF7; Homo sapiens, MCF7, SRB, 48 h, read-out: GI50 MCF7",9.23 ± 0.21 µM
same,GI50,"MDA-MB231; Homo sapiens, MDA-MB-231, 48 h",26.2 ± 0.62 µM
"CCN(CC)CCCC(C)Nc1ccnc2cc(Cl)ccc12 (stereo not shown) [Chloroquine, reference compound]",GI50,"MDA-MB468; Homo sapiens, MDA-MB-468, 48 h",28.6 ± 1.25 µM
same,GI50,"184B5; Homo sapiens, 184B5",76.1 ± 1.13 µM
same,GI50,"MCF7; Homo sapiens, MCF7, 48 h, read-out: GI50 MCF7",38.4 ± 1.2 µM
same,GI50,"MCF7; Homo sapiens, MCF7, read-out: GI50 value of CQ on MCF7",~38 µM
same,GI50,"MCF10A; Homo sapiens, MCF-10A",81.3 ± 1.45 µM
same,ALT,[1],6.03 ± 4.40 IU/L blood
same,Apoptosis in MCF10A,MCF10A non-cancer cells,some cells underwent apoptosis
same,GI50,"MDA-MB231; Homo sapiens, MDA-MB-231, 48 h",22.5 ± 1.44 µM
CC(=O)O[C@H]1C(=O)[C@@]2(C)[C@H]([C@H](OC(=O)c3ccccc3)[C@]3(O)C[C@H](OC(=O)[C@H](O)[C@@H](NC(=O)c4ccccc4)c4ccccc4)C(C)=C1C3(C)C)[C@]1(OC(C)=O)CO[C@@H]1C[C@@H]2O [Paclitaxel],Tumor size D7,"[2]; day 7 post-treatment, dosing as in Table IX B",47.63 ± 8.67
same,Tumor size D15,"[2]; day 15 post-treatment, dosing as in Table IX B",23.25 ± 11.63
same,Tumor size D18,"[2]; day 18 post-treatment, dosing as in Table IX B",25.20 ± 13.69
same,Tumor size D22,"[2]; day 22 post-treatment, dosing as in Table IX B",16.59 ± 2.66
same,Reduction of tumor burden,[2]; paclitaxel 20 mg/kg/week,18.4 fold
same,Microscopic Changes (liver),"[3]; ATH490 mice, VR-23, 30 mg/week, Paclitaxel, 20 mg/week",High rate of mitotic cells in liver
same,Spleen histology (H&E),"[3]; VR-23 30 mg/kg, paclitaxel 20 mg/kg",side effects including germinal center (GC) expansion
same,"Kidney histology (H&E), nephrotoxicity","[3]; VR-23 30 mg/kg, paclitaxel 20 mg/kg, four weeks","high cellularity, endocapillary proliferative glomerulonephritis (enlarged glomeruli), and collapsed Bowman space"
same,Cases with liver cells with densely stained nucleic acids,[3]; paclitaxel 20 mg/kg,approximately 15%
same,Weight of spleen,"[3]; paclitaxel-treated, 29 days post-treatment",weight of spleen was higher
same,ALT,[4],35.91 ± 4.26 U/L
same,AST,[4],84.4 ± 29.21 U/L
same,Survival (% of the control),MCF7 cells; 1 nM of Paclitaxel alone,35.8%
same,Survival (% of the control),"MCF7 cells; 1 nM of Paclitaxel alone, listed as paclitaxel",35.8%
same,Survival (% of the control),MCF7 cells; 2 nM of Paclitaxel alone,9.5%
